Patent US11406707B2, “STAT3 phosphorylation during graft-versus-host disease” (H. LEE MOFFITT CANCER CENTER AND RESEARCH INSTITUTE, INC., priority 2014, dated 2022)

Columns and labels:
RORgammaT = RORgammaT expression by RT-PCR in allostimulated CD4+ T-cells; format: cell-based, human; conditions: S3I-201 alone, 5 days
Method: To optimize the detection of RORgammaT expression, CD4+ T-cells were isolated by magnetic bead negative selection (Miltenyi Biotec, Auburn, Calif. USA). […] (2011) Blood 118:5330-9; Betts, B C, et al. (2013) J Leukoc Biol. 2014 95(2):205-13; Betts, B C, et al. (2011) Blood 118:5340-3]. […] After the 5 day culture, the T-cells were harvested. Total RNA was extracted using TRIZOL (Life Technologies) according to manufacturer instructions. […] RT-PCR was carried out on an ABI 7900 instrument (Applied Biosystems) and performed [Ratajewski, M, et al. (2012) J Immunol 189:3034-42] with some modification using SYBR® Green PCR Master Mix (Life Technologies) as follows: 10 minutes at 95° C. and then 45 cycles each at 95° C. for 15 seconds, 59° C. for 45 seconds, and 72° C. for 10 seconds. The following primers were used: RORgammaT forward [NT] ID NO:7) and reverse […] NO:8); GAPDH forward [NT] ID NO:9) and reverse [NT] ID NO:10). PCR product purity was assessed by dissociation curves. The differences in gene expression were calculated by 2-ΔΔCt in triplicate. Data were normalized to GAPDH expression.

[1] = tested on: allostimulated T-cell proliferation; test: Primary 5-day alloMLR T-cell proliferation; format: cell-based, human
Description: (§1) Bulk donor T-cells were allostimulated with cytokine-matured, allogeneic moDCs at a DC:T-cell ratio of 1:30 as previously described (Florida Blood Services) [Betts, B C, et al. (2011) Blood 118:5330-9; Betts, B C, et al. […] Betts, B C, et al. (2011) Blood 118:5340-3]. […] Lower doses of each drug were used in these experiments to mimic expected physiologic concentrations [Siddiquee, K, et al. (2007) Proceedings of the National Academy of Sciences of the United States of America 104:7391-6; Zeiser, R, et al. (2008) Blood 111:453-62], and to better detect potential synergistic activity with the combination of rapamycin and S3I-201. After 5 days of culture at […]-cell proliferation was measured by a colorimetric assay per the manufacturer's instructions (CellTiter 96 Aqueous One Solution Cell Proliferation Assay [MTS]; Promega, Madison, Wis. USA) [Betts, B C, et al. (2011) Blood 118:5330-9; Betts, B C, et al. […] Betts, B C, et al. (2011) Blood 118:5340-3]. Absorbance/optical density (OD) was analyzed at 490 nm. Secondary alloMLR: […] Following priming, the T-cells were then rested and re-cultured with fresh first-party moDCs (DC:T-cell ratio of 1:30). […] After 3 days, T-cell proliferation was measured by a colorimetric assay as described (Promega). T-cells alone and PHA-stimulated T-cells served as negative and positive controls, respectively, for both the primary and secondary alloMLRs.

STAT3 [2] = target: T1, STAT3 (Homo sapiens, UniProt P40763); test: IL-6-pulsed STAT3 phosphorylation in alloactivated T cells (flow cytometry); format: cell-based
T1 construct: endogenous in cells; host or cells: primary human T cells from healthy-donor PBMC, allostimulated by monocyte-derived dendritic cells
Description: To confirm selective STAT3 inhibition, T cells were first briefly allostimulated by moDCs (DC:T cell ratio 1:30) and then pulsed with the relevant STAT3- or -5-dependent cytokine in the presence or absence of S3I-201. The 3-day exposure to allogenic moDCs allows the responding T cells to increase CD25 expression and capacity to receive IL-2 signaling, while resting or stimulated T cells phosphorylate STAT3 in response to IL-6 [Betts, B. C., et al. (2011) Blood 118, 5330-5339]. DC-allostimulated T cells (1×10^6) were then exposed to S3I-201 (50 or 100 μM) or DMSO for 4 h in serum-free RPMI (Corning Cellgro) to reduce background phosphorylation, followed by a 15 min pulse with IL-6 (4000 IU/ml) or -2 (50 IU/ml). T-cell STAT phosphorylation was determined by surface staining for CD3, followed by fixation (CytoFix; BD Biosciences), permeabilization with cold methanol, and intracellular staining for STAT3 and -5. The phosphorylated STAT3 and -5 geometric MFI ratio was calculated by dividing the geometric MFI of the cytokine-pulsed cells by the geometric MFI of the corresponding fluorochrome isotype.

STAT3 [3] = target: T1, STAT3; test: STAT3 phosphorylation in CD4+ T cells of 5 day allo-MLRs without exogenous cytokine; format: cell-based; conditions: S3I-201 50 or 100 μM, 5 day allo-MLR
Method: No exogenous cytokine was added. DC-allosensitized T cells were harvested on day 5. […] The ratio of CD4^+, pSTAT5^Bright to CD4^+, pSTAT3^+ T cells was calculated by percentage of phosphorylation.

S6 ribosomal protein = test: Akt-mTOR-S6 signaling in IL-2-stimulated donor T-cells; format: cell-based, human; conditions: S3I-201 50 uM, 4 hours, IL-2 pulse
Method: T-cells were serum-starved in RPMI treated with DMSO diluent control, rapamycin 100 ng/ml (EMD Millipore, Billerica, Mass. USA), or STAT3 inhibitor S3I-201 50 uM (H. Lee Moffitt Cancer Center, Drug Discovery Core) for 4 hours. For the STAT3 experiments, the T-cells were first DC-allostimulated (DC:T-cell ratio of 1:30) for 3 days to optimize surface expression of IL-6 receptor alpha and STAT3 signaling among healthy volunteers. The T-cells were then cytokine-pulsed for 15 minutes with either IL-2 (R&D Systems) to activate the Akt-mTOR-S6 pathway, or IL-6 to stimulate STAT3 phosphorylation. The cells were then fixed and permeabilized as described, and then stained for CD3, CD4 (STAT3 experiments), phosphorylated STAT3 Y705, and phosphorylated S6.

STAT5 = test: IL-2-pulsed STAT5 phosphorylation in alloactivated T cells (flow cytometry); format: cell-based, human
Method: The 3-day exposure to allogenic moDCs allows the responding T cells to increase CD25 expression and capacity to receive IL-2 signaling, while resting or stimulated T cells phosphorylate STAT3 in response to IL-6 [Betts, B. C., et al. (2011) Blood 118, 5330-5339]. […] T-cell STAT phosphorylation was determined by surface staining for CD3, followed by fixation (CytoFix; […] The percentage of STAT3 and bright STAT5 phosphorylation in the T cells is depicted by the gates in each respective histogram (FIG. 1C, D).

primed T-cells = test: Secondary alloMLR (3-day restimulation of primed T-cells) proliferation; format: cell-based, human
Description: as §1

T1 sequence (P40763 whole entry): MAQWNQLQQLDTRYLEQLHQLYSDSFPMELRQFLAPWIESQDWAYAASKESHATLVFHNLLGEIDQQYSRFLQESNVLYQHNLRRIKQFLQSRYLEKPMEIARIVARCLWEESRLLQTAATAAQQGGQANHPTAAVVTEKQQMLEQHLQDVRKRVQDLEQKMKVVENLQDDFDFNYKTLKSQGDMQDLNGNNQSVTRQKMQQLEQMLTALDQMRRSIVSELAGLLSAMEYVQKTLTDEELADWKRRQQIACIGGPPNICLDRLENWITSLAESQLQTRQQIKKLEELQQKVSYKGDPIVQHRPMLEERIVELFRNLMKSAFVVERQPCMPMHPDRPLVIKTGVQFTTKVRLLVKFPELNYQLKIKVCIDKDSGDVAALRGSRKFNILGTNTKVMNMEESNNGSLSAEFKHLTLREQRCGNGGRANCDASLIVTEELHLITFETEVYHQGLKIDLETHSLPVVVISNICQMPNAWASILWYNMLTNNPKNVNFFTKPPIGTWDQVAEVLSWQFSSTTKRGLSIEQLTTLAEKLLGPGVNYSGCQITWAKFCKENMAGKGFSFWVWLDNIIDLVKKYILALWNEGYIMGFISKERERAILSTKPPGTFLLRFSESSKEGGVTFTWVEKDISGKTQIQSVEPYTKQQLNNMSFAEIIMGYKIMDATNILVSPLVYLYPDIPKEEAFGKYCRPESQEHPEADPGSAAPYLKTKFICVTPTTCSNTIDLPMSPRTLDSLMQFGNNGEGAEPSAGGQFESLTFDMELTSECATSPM

Cc1ccc(S(=O)(=O)OCC(=O)Nc2ccc(C(=O)O)c(O)c2)cc1 [S3I-201]
RORgammaT expression compared with DMSO (RORgammaT): significant suppression | allostimulated T-cell proliferation ([1]; S3I-201 50 uM single agent): significantly reduced | alloreactive T-cell proliferation ([1]; S3I-201 below 50 μM single agent): no effect | IL-6-mediated STAT3 signaling (STAT3 [2]; S3I-201 50 and 100 μM, 4 h, 15 min IL-6 pulse): inhibited | concentration giving the highest degree of STAT3 inhibition selectivity (STAT3 [2]; STAT3 vs STAT5 phosphorylation): 50 µM | STAT3 phosphorylation in CD4+ alloresponders (STAT3 [3]): maintained on-target suppression | S6 activation (S6 ribosomal protein): modestly reduced | off-target effect on IL-2/STAT5 phosphorylation (geometric MFI ratio, percentage) (STAT5; S3I-201 100 μM vs DMSO): decrease in IL-2/STAT5 phosphorylation | IL-2-induced STAT5 phosphorylation (STAT5; S3I-201 50 or 100 μM, 15 min IL-2 pulse, vs unstimulated baseline): occurred in all treated T cells | inhibition at 50 µM (primed T-cells; Homo sapiens, T-cell, S3I-201 50 μM, read-out: inhibition of proliferation in comparison to DMSO): 67% | proliferation of primed T-cells on rechallenge (primed T-cells; S3I-201 50 μM alone): significantly suppressed
